{
  "source": "patent EP3338772A1",
  "about": "“[…] COMPOSITIONS STABILIZED BY HYDROXYCARBOXYLIC ACIDS , THE PRODUCTION THEREOF AND HIGHLY CONCENTRATED MAGNESIUM COMPOSITIONS” (Merz Pharma GmbH & Co. KGaA, priority 2016, dated 2018)",
  "origin": "cited, not measured here",
  "key": {"[1]": {"details": "water"}},
  "note": "Read-outs that look alike come from different tables or passages of the source.",
  "data": [
    {"substance": "Calcium-Magnesium-Lactat-Citrat-Komplex", "values": [
      {"measurement": "Löslichkeit in Wasser, Calcium", "setting": "[1]", "value": 900, "unit": "mg/L"},
      {"measurement": "Löslichkeit in Wasser, Magnesium", "setting": "[1]", "value": 300, "unit": "mg/L"}
    ]},
    {"substance": "Trimagnesiumdicitrat*Nonahydrat (C12H10O14Mg3*9H2O)", "values": [
      {"measurement": "Löslichkeit", "setting": "25 °C", "value": "18,14 g(Mg^2+)kg^-1H2O"}
    ]},
    {"substance": "Trimagnesiumdicitrat*Tetradecanhydrat (C12H10O14Mg3*14H2O)", "values": [
      {"measurement": "Löslichkeit", "setting": "22 °C", "value": "19,40 g(Mg^2+)kg^-1H2O"},
      {"measurement": "maximale Magnesium-Konzentration", "setting": "Raumtemperatur, without hydroxycarboxylic acid", "value": "19,40 g(Mg^2+) kg^-1 (Wasser)"}
    ]}
  ]
}
